# In a melting point compilation (Tetko et al.):
row,SMILES,melting point [°C]
1,O=C(O)C1CSCN1C(=O)c1c[nH]c2ccccc12 (stereo unspecified),159 to 161
2,O=C(O)c1cnn(-c2nccs2)c1,181 to 183
3,O=C(O)COc1ccccc1OCc1ccccc1,87 to 89
4,CC(=O)Nc1cnc(NC(C)=O)s1,245 to 247
5,O=C(CCl)NCC(=O)Nc1ccccc1Br,218 to 220
6,COc1ccc(NS(=O)(=O)c2ccc(N)c(N)c2)cc1,163 to 165
7,O=C1CCCc2ccccc2N1,129 to 131
8,O=C(O)c1cccn1-c1ccc(I)cc1,199 to 201
9,NNC(=O)c1cc(-c2ccco2)nc2ccccc12,219 to 221
10,CNC(=O)COc1ccc(C(=O)O)cc1OC,221 to 223
11,O=C(O)c1ncoc1-c1cccc(F)c1,169 to 171
12,Nc1ccc2nc(Cc3ccccc3)oc2c1,104 to 106
13,O=Cc1cc(O)c(O)c(Br)c1,219 to 221
14,O=S(=O)(c1ccc(Cl)nc1)N1CCC(Cc2ccccc2)CC1,153 to 157
15,O=C(CCl)Nc1nnc(-c2ccco2)o1,194 to 196
16,Fc1ccc(-c2csc3ncnc(Cl)c23)cc1,139 to 141
17,Cn1cnnc1SCC(=O)Nc1cccc(C(=O)O)c1,231 to 233
18,CS(=O)(=O)c1ccc(N)cc1F,116 to 118
19,Cn1c(=O)n(C)c2cc(N)ccc21,148 to 150
20,O=CC(Br)C=Nc1nccs1 (stereo unspecified),137 to 139
21,Cc1ccc(-c2nn(-c3ccccc3)cc2C=CC(=O)O)cc1,220 to 222
22,Nc1nnns1,120 to 122
23,Cn1cc(-c2nc3ccccn3c2N)cn1,149 to 151
24,O=S1(=O)CCC(Cc2nnc(S)o2)C1 (stereo unspecified),160 to 162
25,O=C(O)c1cccc2[nH]cnc12,326 to 330

row,SMILES,melting point [°C]
1,Cc1ccc(-n2c(C)c(C)c3c(N)ncnc32)cc1,202 to 206
2,N#CCNC(=O)CCl,88 to 90
3,CCCCc1ccc(NC2=NCCCS2)cc1,70 to 72
4,O=Cc1cn(-c2ccccc2)cn1,125 to 127
5,COC(=O)Cc1ccc(S(=O)(=O)Cl)s1,59 to 61
6,O=C(O)CCc1ccsc1,54 to 58
7,Cc1ccc(N2CCCC(Br)C2=O)cc1 (stereo unspecified),96 to 98
8,CCCc1ccc(-c2csc(N)n2)cc1,115 to 117
9,Nc1nnc(CCc2ccccc2)o1,195 to 197
10,CCN(C(=O)OC(C)(C)C)C(C(N)=S)c1cccnc1 (stereo unspecified),139 to 141
11,O=C(O)CC(Cc1ccccc1)c1ccccc1 (stereo unspecified),90 to 92
12,O=C(c1cccc(F)c1)c1cccc(Cl)c1,62 to 64
13,CN1C(=O)CC(C(=O)O)C1c1cccs1 (stereo unspecified),139 to 141
14,CC1CCCN(S(=O)(=O)c2ccc(CN)cc2)C1 (stereo unspecified),92 to 94
15,COc1ccc(C2C(C(=O)O)CCC(=O)N2c2ccc(C)cc2)cc1 (stereo unspecified),201 to 203
16,O=C(O)c1c(F)ccc(OC(F)F)c1F,90 to 92
17,O=S(=O)(Cl)c1c(Cl)ccc2c(Cl)ccnc12,155 to 157
18,O=c1cc(CCl)nc2sccn12,180 to 182
19,CCC(C)c1ccc(-c2csc(N)n2)cc1 (stereo unspecified),77 to 79
20,NC(C(=O)O)(c1cccc(Cl)c1)C(F)(F)F (stereo unspecified),109 to 111
21,CCOCCCNc1nnc(S)s1,63 to 65
22,Cc1cc(-n2c(C)cc(C(=O)O)c2C)no1,175 to 180
23,O=C(c1cc(F)ccc1F)c1ccccc1Cl,67 to 69
24,BrCc1cccc2ccccc12,49 to 51
25,Cc1c(C(=O)O)cnn1C1CCCC1,99 to 101

row,SMILES,melting point [°C]
1,O=C1CC(C2CCCCN2)CN1 (stereo unspecified),62 to 64
2,CC(C)n1[nH]ccc1=NC(=O)OCC(F)(F)F,77 to 79
3,O=Cc1ccc(OCc2cccnc2)cc1,75 to 77
4,N#Cc1ccc(CN2CCNCC2)cc1,214 to 216
5,CCC(C)Oc1cc(C(=O)O)ccn1 (stereo unspecified),83 to 85
6,CCOC(=O)c1c(N)cc(OC)cc1OC,61 to 63
7,O=C1CCCC(N2C(=O)c3ccccc3C2=O)C1 (stereo unspecified),147 to 149
8,O=c1[nH]c2ccccc2c(=O)n1CCCO,174 to 176
9,O=C(Nc1ccc(O)cc1)c1ccccc1,215 to 217
10,O=C(O)CC1CCCCO1 (stereo unspecified),49 to 51
11,Nc1cc(F)c(OC2CCCCC2)cc1C(=O)O,159 to 161
12,N#Cc1ccsc1NC(=O)CCl,160 to 170
13,CNC(=O)Nc1ccc(N)cc1,147 to 149
14,O=C(c1cccs1)c1cccc2ccccc12,65 to 67
15,O=C(O)c1csc(-c2cnn(-c3ccccc3)c2)n1,202 to 204
16,Cc1c[nH]nc1[N+](=O)[O-],183 to 185
17,O=C(O)CCc1cnn(-c2ccccc2)c1,80 to 89
18,Cc1cnc(Br)nc1Br,58 to 60
19,Fc1ccccc1CNc1ccc(Cl)nn1,169 to 171
20,O=C(O)c1cn2ccccc2n1,242 to 244
21,CC(C)(C)OC(=O)Nc1cnsn1,93 to 95
22,NC(Cc1ccco1)C(=O)O (stereo unspecified),179 to 181
23,CCN(CC)S(=O)(=O)c1ccc(F)c(C(=O)O)c1,161 to 163
24,N#CCCn1cc(C(=O)CCl)c2ccccc21,138 to 140
25,Nc1nc(C(F)(F)F)no1,97 to 99

# Now from value to compound:
row,melting point [°C],SMILES
1,178 to 180,CCc1cccc2c(C(=O)CC#N)c[nH]c12
2,94 to 96,CC(C)(C)c1nc(CC(=O)O)cs1
3,173 to 175,O=c1c(Cl)c(Cl)cnn1-c1ccc(F)cc1F
4,118 to 120,NS(=O)(=O)Cc1ccccc1Br
5,343 to 345,Nc1ncnc2c(F)cc(Br)cc12
6,94 to 96,O=C1CCN(c2ccccc2)C1
7,188 to 190,CC(=O)N1CC=C(c2ccc(O)cc2)CC1
8,86 to 88,O=C(O)C1CCCCN1C(=O)OCc1ccccc1 (stereo unspecified)
9,107 to 109,CS(=O)(=O)c1cccc(C(=O)c2ccc(Cl)cc2)c1
10,182 to 184,O=C(NO)c1ccccc1Br
11,185 to 187,CCOc1cc(C(=O)O)ccc1OCc1cccnc1
12,272 to 274,O=c1[nH]cnc2ccc(I)cc12
13,221 to 223,Cc1cc(C(=O)O)nn1-c1ccc(F)cc1F
14,39 to 41,Cc1ccc(C(F)(F)C(=O)O)cc1
15,258 to 260,O=C(O)c1cncc(N2CCOCC2)c1
16,198 to 200,Nc1snc2ccc([N+](=O)[O-])cc12
17,115 to 117,CCn1c(=O)c(C(=O)CCl)c(N)n(Cc2ccccc2)c1=O
18,45 to 47,SCCCNc1ncccn1
19,226 to 228,O=C(Cc1ccc(Br)cc1)Nc1ccsc1C(=O)O
20,289 to 291,CC1C(=O)Nc2cc(C(=O)O)ccc2N1C (stereo unspecified)
21,285 to 287,O=C(O)c1ccc(N2CC=CC2)cc1
22,140 to 142,Nc1ccc(-n2cnnn2)cc1
23,119 to 121,Cc1ccc(I)c(C(=O)O)c1
24,230 to 232,Cn1cc(-c2csc(N)n2)cn1

row,melting point [°C],SMILES
1,272 to 274,CS(=O)(=O)c1ccc(CN)cc1
2,157 to 159,Nn1c(S)nnc1SCc1ccccc1
3,99 to 101,CC(=O)NCCC(N)=S
4,145 to 147,CC(C)C(NC(=O)c1ccc([N+](=O)[O-])cc1Cl)C(=O)O (stereo unspecified)
5,95 to 97,CC(Oc1cccc(F)c1)C(=O)O (stereo unspecified)
6,65 to 67,OCCCOc1cccc2ccccc12
7,227 to 229,CC(C)(C)Cc1nc(-c2ccc(C(=O)O)cc2)no1
8,119 to 121,CCCn1c(S)nnc1CO
9,67 to 69,CC(Cl)c1nnc(-c2ccc(F)cc2)o1 (stereo unspecified)
10,131 to 133,Nc1ccc(=O)n(Cc2ccc(Cl)c(Cl)c2)c1
11,51 to 53,CC(C)(C)CC(=O)NN
12,87 to 89,NC(=NO)C1CCCCCC1
13,121 to 123,CCN(C(C)=O)c1nc(C=O)cs1
14,162 to 166,NS(=O)(=O)c1ccc2c(c1)CCN2
15,198 to 200,COC(=O)c1cc2c(F)cc(F)cc2[nH]1
16,153 to 155,Cc1ccc(CNC(=O)c2nnc(CCl)s2)cc1
17,33 to 35,CC(C)c1cc(N)on1
18,129 to 131,OCc1nnc(-c2ccccc2)o1
19,262 to 264,Cc1nc(N2CCCC2)[nH]c(=O)c1CC(=O)O
20,145 to 147,CC(Oc1ccccc1C(F)(F)F)C(=O)O (stereo unspecified)
21,175 to 177,CCc1cc(Cl)n2c(nc3ccccc32)c1C#N
22,163 to 165,CC1=CC(=O)N(c2ccccc2C(=O)O)C1=O
23,104 to 106,CC1CNCCC1NC(=O)OC(C)(C)C (stereo unspecified)
24,274 to 276,NS(=O)(=O)c1ccc(/C=C/C(=O)O)cc1

row,melting point [°C],SMILES
1,125 to 127,NS(=O)(=O)c1ccc(Cl)cn1
2,93 to 97,Cc1cccc(Oc2ccc(Cl)cc2N)c1
3,140 to 142,Nc1cccc(C2SCCCS2)c1
4,30 to 32,O=S(=O)(Cl)CCc1ccccc1
5,49 to 51,Cc1nncn1C1CC1
6,80 to 82,N#Cc1ccc(CBr)c(OC(F)F)c1
7,120 to 122,COC(=O)c1sccc1S(N)(=O)=O
8,214 to 216,NC(CSCCOc1ccccc1)C(=O)O (stereo unspecified)
9,114 to 116,COc1ncccc1C(N)=S
10,172 to 176,CN(C)S(=O)(=O)c1cccc(C(=O)NCC(=O)O)c1
11,62 to 64,CC(C)(C)CNc1cccnc1
12,219 to 221,N#CC1(c2ccc(C(=O)O)cc2)CC1
13,343 to 345,O=C(O)c1ccc2c(=O)n(-c3ccccc3F)c(=O)[nH]c2c1
14,129 to 131,CC(O)(C(=O)O)c1ccc(Cl)cc1 (stereo unspecified)
15,116 to 118,O=C(O)Cc1ccc(S(=O)(=O)N2CCOCC2)s1
16,154 to 156,COc1cc(C#N)ccc1OCC(=O)O
17,127 to 129,O=C(NCCN1CCOCC1)C1CCNCC1
18,162 to 164,CN(c1cccc(Cl)c1)S(=O)(=O)c1cccc(C(=O)O)c1
19,193 to 195,CC(C)NC(=O)Nc1ccc(C#N)cc1
20,149 to 151,NS(=O)(=O)c1ccccc1Cn1ccnc1
21,299 to 301,Cc1[nH]c2ccccc2c(=O)c1C(C)C
22,134 to 136,Fc1ccccc1Cc1nnc(S)o1
23,68 to 70,OCCN1CCN(Cc2ccsc2)CC1
